Target: human iNKT‐cell TCR (Homo sapiens, UniProt A0A0B4J240+P15813)
Experiment: SPR (BIAcore) binding of soluble human iNKT‐cell TCR to hCD1d/lipid complexes
Protocol: Two analogs of ThrCer, ThrCer 6, and ThrCer 7 were synthesized. […] We first carried out measurements to assess the binding affinity of these ThrCer analogs to human iNKT‐cell TCR (Fig. 1B). Recombinant human CD1d (hCD1d) molecules were refolded in vitro with ThrCer 6 and ThrCer 7 separately and coupled to BIAcore chips, over which refolded human iNKT‐cell TCR was injected at different concentrations 34. […] Importantly, these findings were consistent with data obtained using tetrameric human iNKT‐cell TCRs as a staining reagent to identify lipid/CD1d complexes on the surface of C1R cells that had been transfected with hCD1d cDNA (hCD1d C1R cells) and subsequently loaded with the different lipids 34 (Fig. 1C).
Soluble human invariant TCR was generated as previously described 34 where both the Vα24 and Vβ11 chains were individually overexpressed in Escherichia coli, purified from the inclusion bodies, then refolded, and purified to generate the TCR heterodimers, according to Boulter et al. 43. The murine TCR was generated according to Pellici et al. as a chimeric molecule (with variable murine regions and human constant regions) 44. The hybrid alpha chains and beta chains were individually expressed in E. coli and purified from the inclusion bodies, then refolded as above.
SPR experiments were performed with a BIAcore 3000 to measure the affinity and kinetics of iNKT‐cell TCR binding to human CD1d–ligand complexes. In brief, approximately 1000 RU of the biotinylated hCD1d–lipid complexes were immobilized onto streptavidin‐coated CM5 sensor chips (BIAcore). Aliquots of purified TCR with increasing concentrations were passed over immobilized hCD1d–lipid complex at a flow rate of 10 μL/min for the equilibrium‐binding experiments or 50 μL/min for the kinetics experiments. The dissociation constants, K d, were calculated by fitting the data from the equilibrium‐binding experiment to a non‐linear regression saturation binding model (GraphPad Prism 5.0), whereas the k off data were estimated from the kinetics experiments by fitting the data with the built‐in models of the BIAeval3.1 software (BIAcore).

- Kd (SPR equilibrium binding, hCD1d refolded with lipid, read-out: K d, human iNKT‐cell TCR binding to hCD1d/lipid complex): 3.15 µM
- koff (SPR kinetics experiment, read-out: k off, human iNKT‐cell TCR from hCD1d/lipid complex): 0.114 s⁻¹
Compound: CCCCCCCCCCCCCCCCCCCCCCCCCC(=O)N[C@@H](COC[C@H](O)[C@@H](O)CO)[C@H](O)[C@H](O)CCCCCCCCCCCCCC [ThrCer, threitolceramide, reference compound]
